Tests used:
Format in all cases: in vivo
[1] = test system: Pharbitis purpurea (PHBPU); assay: Herbicidal pre-emergence action; details: 1280 g/ha, graded after ca. 3 weeks
Procedure, shortened: (§1)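 Percent herbicidal effect, from 0% (as untreated) to 100% (plants dead), was graded visually about 3 weeks after treatment under optimal greenhouse conditions. Compounds, as WP or EC with 0.5% additive in 600 l water/ha at up to 1280 g/ha, were applied to covering soil over freshly sown seeds in sandy loam.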

[2] = test system: Alopecurus myosuroides (ALOMY); assay: Herbicidal pre-emergence action; details: 1280 g/ha, graded after ca. 3 weeks
Procedure, shortened: as §1

Avena fatua (AVEFA) [3] = assay: Herbicidal pre-emergence action; details: 1280 g/ha, graded after ca. 3 weeks
Procedure, shortened: as §1

[4] = test system: Echinochloa crus-galli (ECHCG); assay: Herbicidal pre-emergence action; details: 1280 g/ha, graded after ca. 3 weeks
Procedure, shortened: as §1

[5] = test system: Polygonum convolvulus (POLCO); assay: Herbicidal pre-emergence action; details: graded after ca. 3 weeks
Procedure, shortened: as §1

[6] = test system: Amaranthus retroflexus (AMARE); assay: Herbicidal post-emergence action; details: 1280 g/ha, assessed after ca. 3 weeks
Procedure, shortened: (§2)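 Applied rates were 1280 or 320 g/ha, as aqueous WP or EC spray with 0.5% additive at 600 l water/ha onto single-leaf-stage plants grown 2–3 weeks in sandy loam. Effect was rated visually about 3 weeks later, 0% matching controls and 100% plants dead.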

Avena fatua (AVEFA) [7] = assay: Herbicidal post-emergence action; details: 1280 g/ha, assessed after ca. 3 weeks
Procedure, shortened: as §2

[8] = test system: Echinochloa crus-galli (ECHCG); assay: Herbicidal post-emergence action; details: 1280 g/ha, assessed after ca. 3 weeks
Procedure, shortened: as §2

Stellaria media (STEME) = assay: Herbicidal post-emergence action; details: 1280 g/ha, assessed after ca. 3 weeks
Procedure, shortened: as §2

[9] = test system: Digitaria sanguinalis (DIGSA); assay: Herbicidal pre-emergence action; details: graded after ca. 3 weeks
Procedure, shortened: as §1

[10] = test system: Lolium multiflorum (LOLMU); assay: Herbicidal pre-emergence action; details: 1280 g/ha, graded after ca. 3 weeks
Procedure, shortened: as §1

Lolium rigidum (LOLRI) [11] = assay: Herbicidal pre-emergence action; details: 320 g/ha, graded after ca. 3 weeks
Procedure, shortened: as §1

Setaria viridis (SETVI) [12] = assay: Herbicidal pre-emergence action; details: graded after ca. 3 weeks
Procedure, shortened: as §1

Viola tricolor (VIOTR) = assay: Herbicidal pre-emergence action; details: 320 g/ha, graded after ca. 3 weeks
Procedure, shortened: as §1

[13] = test system: Alopecurus myosuroides (ALOMY); assay: Herbicidal post-emergence action; details: 1280 g/ha, assessed after ca. 3 weeks
Procedure, shortened: as §2

[14] = test system: Cyperus esculentus (CYPES); assay: Herbicidal post-emergence action; details: 1280 g/ha, assessed after ca. 3 weeks
Procedure, shortened: as §2

[15] = test system: Digitaria sanguinalis (DIGSA); assay: Herbicidal post-emergence action; details: assessed after ca. 3 weeks
Procedure, shortened: as §2

[16] = test system: Lolium multiflorum (LOLMU); assay: Herbicidal post-emergence action; details: 1280 g/ha, assessed after ca. 3 weeks
Procedure, shortened: as §2

Lolium rigidum (LOLRI) [17] = assay: Herbicidal post-emergence action; details: 320 g/ha, assessed after ca. 3 weeks
Procedure, shortened: as §2

Setaria viridis (SETVI) [18] = assay: Herbicidal post-emergence action; details: 1280 g/ha, assessed after ca. 3 weeks
Procedure, shortened: as §2

Brassica napus (BRSNW) [19] = assay: Pre-emergence effects on crop plants; details: 320 g/ha, crop plant
Source text: (§3) Seeds of mono- and dicotyledonous weed plants and crop plants were sown, in plastic or organic planting pots, in sandy loam and covered with soil. The compounds according to the invention, formulated in the form of wettable powders (WP) or as emulsifiable concentrates (EC), were applied to the surface of the covering soil as aqueous suspension or emulsion, with the addition of 0.5% of an additive, at an application rate of 600 1 of water/ha (converted).
(§4) Following treatment, the pots were placed in a greenhouse and kept under optimum growth conditions for the test plants. The visual grading of the damage to the test plants was carried out after ca. 3 weeks in comparison to untreated controls (herbicidal effect in percent (%): 100% effect=plants have died off, 0% effect=as control plants).
(§5) Tables C1 to C3 below show the effects of selected compounds of the general formula (I) according to table 1 on various crop plants and an application rate corresponding to 320 g/ha or below obtained by the experimental procedure mentioned above in biology section A.

Glycine max (GLXMA) [20] = assay: Pre-emergence effects on crop plants; details: 320 g/ha, crop plant
Source text: as §3, §4, §5

Zea Mays (ZEAMX) [21] = assay: Pre-emergence effects on crop plants; details: 80 g/ha, crop plant
Source text: as §3, §4, §5

Brassica napus (BRSNW) [22] = assay: Post-emergence effects on crop plants; details: crop plant Brassica napus (BRSNW)
Source text: (§6) Seeds of mono- and dicotyledonous weed plants and crop plants were sown, in plastic or organic planting pots, in sandy loam, covered with soil and grown in a greenhouse under controlled growth conditions. 2 to 3 weeks after sowing, the test plants were sprayed in the single-leaf stage. The compounds according to the invention, formulated in form of wettable powders (WP) or as emulsifiable concentrates (EC), were sprayed onto the green plant parts as aqueous suspension or emulsion, with the addition of 0.5% of an additive, at an application rate of 600 1 of water/ha (converted). The test plants were placed in the greenhouse for ca. 3 weeks under optimum growth conditions, and then the effect of the preparations was assessed visually in comparison with untreated controls (herbicidal effect in percent (%): 100% effect=plants have died off, 0% effect=as control plants).
(§7) Tables D1 to D3 below show the effects of selected compounds of the general formula (I) according to table 1 on various crop plants and an application rate corresponding to 320 g/ha or below obtained by the experimental procedure mentioned above in biology section B.

Glycine max (GLXMA) [23] = assay: Post-emergence effects on crop plants; details: 320 g/ha, crop plant
Source text: as §6, §7

Zea Mays (ZEAMX) [24] = assay: Post-emergence effects on crop plants; details: 80 g/ha, crop plant
Source text: as §6, §7

Poa annua (POAAN) [25] = assay: Herbicidal pre-emergence action; details: graded after ca. 3 weeks
Procedure, shortened: as §1

Poa annua (POAAN) [26] = assay: Herbicidal post-emergence action; details: assessed after ca. 3 weeks
Procedure, shortened: as §2

With O=C(CC1CCC(=O)N1Cc1cccc(F)c1F)NCC(F)(F)F (racemic) [Example I-090] the “Pre-emergence activity against PHBPU” value [1] was 100%.
With CC1(C)CCC(=O)C(C(=O)CC2CCC(=O)N2Cc2cccc(F)c2F)C1=O (racemic) [Example I-178] the “Pre-emergence activity against ALOMY” value [2] was 90%, the “Pre-emergence activity against AVEFA” value (Avena fatua (AVEFA) [3]) was 90% and the “Pre-emergence activity against ECHCG” value [4] was 90%. The “Pre-emergence activity against PHBPU” value [1] was 90%, the “Pre-emergence activity against POLCO” value ([5]; 1280 g/ha) was 90% and the “Post-emergence activity against AMARE” value [6] was 100%. For the same molecule, the “Post-emergence activity against AVEFA” value (Avena fatua (AVEFA) [7]) was 80%, the “Post-emergence activity against ECHCG” value [8] was 90% and the “Post-emergence activity against STEME” value (Stellaria media (STEME)) was 80%.
In the case of O=C(O)CC1CCC(=O)N1Cc1cccc(F)c1F (single isomer, unassigned) [Example I-014], the “Pre-emergence activity against ALOMY” value [2] was 100%, the “Pre-emergence activity against AVEFA” value (Avena fatua (AVEFA) [3]) was 100% and the “Pre-emergence activity against DIGSA” value ([9]; 320 g/ha) was 100%. For the same molecule, the “Pre-emergence activity against ECHCG” value [4] was 80%, the “Pre-emergence activity against LOLMU” value [10] was 90% and the “Pre-emergence activity against LOLRI” value (Lolium rigidum (LOLRI) [11]) was 90%. For the same molecule, the “Pre-emergence activity against POLCO” value ([5]; 320 g/ha) was 90%, the “Pre-emergence activity against SETVI” value (Setaria viridis (SETVI) [12]; 320 g/ha) was 90% and the “Pre-emergence activity against VIOTR” value (Viola tricolor (VIOTR)) was 90%. The “Post-emergence activity against ALOMY” value [13] was 80%, the “Post-emergence activity against AVEFA” value (Avena fatua (AVEFA) [7]) was 80% and the “Post-emergence activity against CYPES” value [14] was 80%. The “Post-emergence activity against DIGSA” value ([15]; 320 g/ha) was 80%, the “Post-emergence activity against ECHCG” value [8] was 90% and the “Post-emergence activity against LOLMU” value [16] was 80%. The “Post-emergence activity against LOLRI” value (Lolium rigidum (LOLRI) [17]) was 80%, the “Post-emergence activity against SETVI” value (Setaria viridis (SETVI) [18]) was 90% and the “pre-emergence activity against BRSNW (crop damage)” value (Brassica napus (BRSNW) [19]) was 0%. The “pre-emergence activity against GLXMA (crop damage)” value (Glycine max (GLXMA) [20]) was 0%, the “pre-emergence activity against ZEAMX (crop damage)” value (Zea Mays (ZEAMX) [21]) was 0% and the “post-emergence activity against BRSNW” value (Brassica napus (BRSNW) [22]; application rate 80 g/ha) was 0%. The “post-emergence activity against GLXMA (crop damage)” value (Glycine max (GLXMA) [23]) was 0% and the “post-emergence activity against ZEAMX (crop damage)” value (Zea Mays (ZEAMX) [24]) was 0%.
For O=C(O)CC1CCC(=O)N1Cc1ccc(F)c(F)c1F (stereo not drawn) [Example I-192, [5-Oxo-1-(2,3,4-trifluorobenzyl)pyrrolidin-2-yl]acetic acid], the “Pre-emergence activity against ALOMY” value [2] was 90%, the “Pre-emergence activity against DIGSA” value ([9]; 320 g/ha) was 90% and the “Pre-emergence activity against DIGSA” value ([9]; 1280 g/ha) was 90%. For the same molecule, the “Pre-emergence activity against ECHCG” value [4] was 80%, the “Pre-emergence activity against LOLRI” value (Lolium rigidum (LOLRI) [11]) was 90% and the “Pre-emergence activity against POAAN” value (Poa annua (POAAN) [25]; 320 g/ha) was 100%. The “Pre-emergence activity against POAAN” value (Poa annua (POAAN) [25]; 1280 g/ha) was 100%, the “Pre-emergence activity against SETVI” value (Setaria viridis (SETVI) [12]; 1280 g/ha) was 90% and the “Post-emergence activity against DIGSA” value ([15]; 1280 g/ha) was 90%. The “Post-emergence activity against ECHCG” value [8] was 90%, the “Post-emergence activity against POAAN” value (Poa annua (POAAN) [26]; 320 g/ha) was 100% and the “Post-emergence activity against POAAN” value (Poa annua (POAAN) [26]; 1280 g/ha) was 100%. For the same molecule, the “post-emergence activity against BRSNW” value (Brassica napus (BRSNW) [22]; application rate 320 g/ha) was 0%.
With O=C(CC1CCC(=O)N1Cc1cccc(F)c1F)Nc1ncns1 (stereo not drawn) [Example I-193, 2-[1-[(2,3-difluorophenyl)methyl]-5-oxo-pyrrolidin-2-yl]-N-(1,2,4-thiadiazol-5-yl)acetamide] the “Pre-emergence activity against POAAN” value (Poa annua (POAAN) [25]; 1280 g/ha) was 90% and the “Post-emergence activity against POAAN” value (Poa annua (POAAN) [26]; 1280 g/ha) was 90%.

Reference: patent publication US20240199542A1, “SUBSTITUTED PYRROLIDIN-2-ONES, SALTS THEREOF AND THEIR USE AS HERBICIDALLY ACTIVE SUBSTANCES” (Bayer Aktiengesellschaft, priority 2021, published 2024)
